In ChEMBL document CHEMBL5308504, “Tm Shift (DSF) assay results for EUbOPEN Chemogenomics Library” (2023):
Several values for one entry are separate records, joined by “and”; a condition that tells them apart may be missing. Equal values may be shown once.

Assays:
Peregrin (Homo sapiens) = target: T1, Peregrin (Homo sapiens) (UniProt P55201); conditions: Compound concentration 20.0 uM, Protein concentration 2.0 uM, Result type QC Liability
T1 sequence (whole entry): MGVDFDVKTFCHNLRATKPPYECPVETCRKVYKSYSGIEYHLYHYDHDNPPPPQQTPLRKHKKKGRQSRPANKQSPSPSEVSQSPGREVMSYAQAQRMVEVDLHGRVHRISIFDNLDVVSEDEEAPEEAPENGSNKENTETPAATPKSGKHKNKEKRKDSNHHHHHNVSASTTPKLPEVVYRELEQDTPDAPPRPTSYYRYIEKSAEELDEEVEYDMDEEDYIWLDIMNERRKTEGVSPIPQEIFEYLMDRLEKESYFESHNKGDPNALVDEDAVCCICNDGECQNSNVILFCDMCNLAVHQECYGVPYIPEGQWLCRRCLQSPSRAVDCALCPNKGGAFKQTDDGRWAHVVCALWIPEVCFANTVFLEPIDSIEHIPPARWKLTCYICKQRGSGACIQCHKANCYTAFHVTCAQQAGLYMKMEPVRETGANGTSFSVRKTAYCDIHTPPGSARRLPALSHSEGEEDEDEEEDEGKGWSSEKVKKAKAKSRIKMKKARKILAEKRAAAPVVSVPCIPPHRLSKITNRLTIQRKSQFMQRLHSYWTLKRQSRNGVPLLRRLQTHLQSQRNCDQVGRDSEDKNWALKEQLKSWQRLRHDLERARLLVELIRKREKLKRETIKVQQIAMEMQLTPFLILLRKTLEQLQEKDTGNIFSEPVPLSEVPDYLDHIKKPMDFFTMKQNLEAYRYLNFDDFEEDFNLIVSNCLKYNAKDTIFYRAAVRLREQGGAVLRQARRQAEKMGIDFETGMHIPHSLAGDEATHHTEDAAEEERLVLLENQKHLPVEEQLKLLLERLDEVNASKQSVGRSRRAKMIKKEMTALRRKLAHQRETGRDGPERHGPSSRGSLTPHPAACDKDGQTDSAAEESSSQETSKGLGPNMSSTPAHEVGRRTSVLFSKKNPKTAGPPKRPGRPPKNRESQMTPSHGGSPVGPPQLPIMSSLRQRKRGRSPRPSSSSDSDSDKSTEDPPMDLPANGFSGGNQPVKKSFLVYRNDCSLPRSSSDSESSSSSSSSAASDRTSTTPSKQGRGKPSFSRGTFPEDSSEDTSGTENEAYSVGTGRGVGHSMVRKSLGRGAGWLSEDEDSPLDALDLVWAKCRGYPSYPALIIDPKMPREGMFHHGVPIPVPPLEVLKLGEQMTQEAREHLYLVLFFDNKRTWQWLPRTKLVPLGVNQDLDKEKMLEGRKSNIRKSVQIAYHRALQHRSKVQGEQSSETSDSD

[1] = target: Fibroblast growth factor receptor 3 (Homo sapiens) (UniProt P22607); conditions: Compound concentration 20.0 uM, Protein concentration 2.0 uM, Result type QC Liability
Sequence of Fibroblast growth factor receptor 3 (Homo sapiens) (P22607 23-806 limits assumed): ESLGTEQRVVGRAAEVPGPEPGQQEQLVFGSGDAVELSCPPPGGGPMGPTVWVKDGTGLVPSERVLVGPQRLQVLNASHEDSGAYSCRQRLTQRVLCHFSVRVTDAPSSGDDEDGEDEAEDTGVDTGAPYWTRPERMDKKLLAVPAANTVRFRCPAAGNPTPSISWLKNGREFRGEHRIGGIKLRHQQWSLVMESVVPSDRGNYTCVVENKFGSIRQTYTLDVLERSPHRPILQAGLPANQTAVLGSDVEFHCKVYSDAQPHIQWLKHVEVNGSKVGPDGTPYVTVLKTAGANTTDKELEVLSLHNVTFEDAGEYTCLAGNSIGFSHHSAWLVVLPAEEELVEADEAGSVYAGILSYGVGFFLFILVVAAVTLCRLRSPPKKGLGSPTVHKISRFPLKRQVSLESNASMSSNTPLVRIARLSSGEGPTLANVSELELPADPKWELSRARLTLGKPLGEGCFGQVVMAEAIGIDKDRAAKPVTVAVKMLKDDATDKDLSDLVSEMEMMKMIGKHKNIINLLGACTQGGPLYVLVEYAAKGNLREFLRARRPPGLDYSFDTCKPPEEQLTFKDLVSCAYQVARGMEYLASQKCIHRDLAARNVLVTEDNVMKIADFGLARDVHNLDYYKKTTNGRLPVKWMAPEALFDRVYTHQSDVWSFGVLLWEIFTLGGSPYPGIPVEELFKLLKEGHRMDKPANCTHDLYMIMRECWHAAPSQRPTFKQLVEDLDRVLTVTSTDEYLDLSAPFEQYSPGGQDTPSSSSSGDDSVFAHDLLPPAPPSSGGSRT
Description: Thermal Shift Assay. Domain: start/stop: P449-E759

Row | SMILES | ΔTm (Peregrin (Homo sapiens)) | ΔTm [1]
1 | NC1(c2ccc(-c3nc4c(O)ccnn4c3-c3ccccc3)cc2)CCC1 | 0.22 °C | 0.79 °C
2 | COc1cc(F)ccc1-c1cc(Nc2cc(CS(C)(=N)=O)ccn2)ncc1F (stereo unspecified) | -1.49 °C | 3.5 °C
3 | CN(C)C/C=C/C(=O)Nc1cccc(S(=O)(=O)N2CCC(NC(=O)c3n[nH]cc3NC(=O)c3c(Cl)cc(Cl)cc3Cl)CC2)c1 | -0.81 °C | 6.8 °C
4 | CC(C)(O)[C@H]1CC[C@H](Nc2ccc3ncc(-c4cccc(C(F)(F)F)c4)n3n2)CC1 | 3.48 °C | 0.8 °C
5 | N=C(N)Nc1cc(C2CCNCC2)cc(C(F)(F)F)c1 | -2.37 °C | 0.42 °C
6 | Cc1nccc(COC(=O)N2C[C@@H]3[C@@H](CNC(=O)c4ccc5[nH]nnc5c4)[C@@H]3C2)n1 | -2.37 °C | 0.43 °C
7 | CCNC(=O)c1ccc2c(c1)NC(=O)/C2=C(\Nc1ccc(CN(C)C)cc1)c1ccccc1 | -2.4 °C and -1.23 °C | 1.15 °C and 1.47 °C
8 | O=C(NCc1ccc(F)cc1)C1CCN(S(=O)(=O)c2cc(Cl)cc(Cl)c2)CC1 | -1.81 °C | 0.9 °C
9 | COc1ccc(COc2ccc(Cc3cnc(N)nc3N)cc2OC)cc1 | -1.34 °C | 0.48 °C
10 | Cc1ccc(-c2cn3nc(C(=O)NC4(c5ccc(F)cc5)CN(C)C4)c(C(C)C)c3c(=O)[nH]2)cc1C | -2.45 °C | 0.62 °C
11 | C[C@H](CCC(=O)O)[C@H]1CC[C@H]2[C@@H]3[C@H](O)C[C@@H]4C[C@H](O)CC[C@]4(C)[C@H]3C[C@H](O)[C@]12C | -2.19 °C | 0.75 °C
12 | O=C(CNC(=O)c1ccc(-c2ccccc2)cc1)NC1CCCc2ccccc21 (stereo unspecified) | -4.59 °C | 0.59 °C
13 | COc1cc(O)c(C(CC(=O)N2C[C@H](C)C[C@H](C)C2)c2ccc3c(c2)OCO3)c(OC)c1 (stereo partly specified) | 1.95 °C | 0.97 °C
14 | CC1(C)C(=O)N([C@H]2CCc3c(O)cccc32)c2nc(Nc3cccc(CN4CCCC4)c3)ncc21 | -1.23 °C | 9.18 °C
15 | CC[C@H](Nc1c(C#N)c(-c2ccc(-c3cccc(C)c3F)cc2)nc2cnccc12)C(=O)O | -1.54 °C | -0.1 °C
16 | Cc1ccc(-n2nc(C(C)(C)C)cc2NC(=O)Nc2ccccc2F)cc1 | -0.3 °C | 2.28 °C

Row | SMILES | ΔTm (Peregrin (Homo sapiens)) | ΔTm [1]
17 | CN(c1ccc(C(F)(F)F)cc1)S(=O)(=O)c1ccc(C(=O)Nc2nc(-c3ccccn3)cs2)cc1 | 7.54 °C | 8.54 °C
18 | N#C/C(=C\c1ccc(O)c(O)c1)C(=O)OCCc1cccs1 | -0.27 °C | 1.51 °C
19 | CSc1nc2c(c(=O)n(C)c(=O)n2C)n1C | -2.2 °C | 0.45 °C
20 | COc1cc(N(C)c2ccnc3ccc(C(F)(F)F)cc23)cc(OC)c1OC | -1.93 °C | 0.76 °C
21 | NCC1CCC(CNc2nc(NCc3ccccc3OC(F)(F)F)ncc2[N+](=O)[O-])CC1 (stereo unspecified) | 0.06 °C | 0.5 °C
22 | C[C@@H](CN1CC[C@@]2(C)c3cccc(O)c3C[C@@H]1C2(C)C)OCc1ccccc1 | -1.96 °C | 1.19 °C
23 | COc1ccc(S(=O)(=O)N2CCOCC2)cc1Nc1ccc2c(n1)N(C1CCOCC1)[C@H](C)C(=O)N2C | 0.21 °C | 0.08 °C
24 | Cc1cc(NC(=O)c2cccc(NC(=O)/C=C/CN(C)C)c2)ccc1Nc1nccc(-c2cccnc2)n1 | -1.22 °C | 1.04 °C
25 | COc1cc(Cl)c(C(=O)N[C@@H](CN[C@H]2CC[C@@H](N)CC2)Cc2ccc(C#N)cc2)cc1-c1ccc(CN[C@H](C)c2ccc(C)cc2)o1 | -2.44 °C | 1.14 °C
26 | COc1cc(C(=O)NCCOCCOCCOCC(=O)N[C@H](C(=O)N2C[C@@H](O)C[C@H]2C(=O)NCc2ccc(-c3scnc3C)cc2)C(C)(C)C)ccc1Nc1ncc(C(F)(F)F)c(Oc2cccc3c2C(=O)CC3)n1 | 1.72 °C | 1.69 °C
27 | O=C(O)/C=C/c1ccc(Cn2ccnc2)cc1 | -2.72 °C | 0.54 °C
28 | Cc1cc(OCc2nc3ccccc3s2)ccc1NC(=O)Nc1ccc(Cl)c(Cl)c1 | -2.19 °C | 0.81 °C
29 | C[C@@H]1OCC2(CCN(c3cnc(Sc4ccnc(N)c4Cl)c(N)n3)CC2)[C@@H]1N | -1.53 °C | 0.48 °C
30 | COc1cc(-c2cncc(-c3cnn(C4CCNCC4)c3)c2)cc(OC)c1OC | -0.73 °C | 0.93 °C
31 | C/C=C1\C(=O)CC2C3CCC4=CC(=O)CC[C@]4(C)C3CC[C@]12C (stereo partly specified) | -1.36 °C | 
